# Results as given in patent US20260053932A1, “COMPOUNDS AND METHODS FOR THE TARGETED DEGRADATION OF ANDROGEN RECEPTOR AND ASSOCIATED METHODS OF USE” (Arvinas Operations, Inc., priority 2020, published 2026).
# Tested on: androgen receptor (AR) in LNCaP and/or VCaP cells
# Assay: Androgen Receptor ELISA assay (AR degradation)
# Assay type: cell-based
# Conditions: degradation of AR ELISA in LNCaP and/or VCaP cells; Table 2C; read-out: DC50 Code*
# Outline: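 VCaP cells grown ≥3 days, then treated 5 h with compound in media containing 1 nM R1881 (10× stock). Cells lysed and AR quantified by sandwich ELISA (mouse AR detection Ab, HRP anti-mouse, TMB). DC50 and Dmax derived from AR degradation.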
row,Compound,DC50 [nM]
1,"COCCN(CC1CCN(c2cnc(C(=O)N[C@H]3C(C)(C)[C@H](Oc4cc(C)c(C#N)c(C)c4)C3(C)C)cn2)CC1)[C@H]1C[C@H](Oc2ccc3c(c2)C(=O)N(C2CCC(=O)NC2=O)C3)C1 (mixture of isomers) [compound 223, rac-N-((1r,3r)-3-(4-cyano-3,5-dimethylphenoxy)-2,2,4,4-tetramethylcyclobutyl)-5-(4-((((1r,3r)-3-((2-(2,6-dioxopiperidin-3-yl)-3-oxoisoindolin-5-yl)oxy)cyclobutyl)(2-methoxyethyl)amino)methyl)piperidin-1-yl)pyrazine-2-carboxamide]",< 1
2,"Cc1cc(O[C@H]2C(C)(C)[C@H](NC(=O)c3cnc(N4CCC(CN(C)[C@H]5C[C@H](Oc6ccc7c(c6)C(=O)N(C6CCC(=O)NC6=O)C7=O)C5)CC4)cn3)C2(C)C)cc(C)c1C#N (mixture of isomers) [compound 224, rac-N-((1r,3r)-3-(4-cyano-3,5-dimethylphenoxy)-2,2,4,4-tetramethylcyclobutyl)-5-(4-((((1r,3r)-3-((2-(2,6-dioxopiperidin-3-yl)-1,3-dioxoisoindolin-5-yl)oxy)cyclobutyl) (methyl)amino)methyl)piperidin-1-yl)pyrazine-2-carboxamide]",< 1
3,"Cc1cc(O[C@H]2C(C)(C)[C@H](NC(=O)c3ccc(N4CCC(CN(CCO)[C@H]5C[C@H](Oc6ccc7c(c6)C(=O)N(C6CCC(=O)NC6=O)C7=O)C5)CC4)cc3)C2(C)C)cc(C)c1C#N (mixture of isomers) [compound 225, rac-N-((1r,3r)-3-(4-cyano-3,5-dimethylphenoxy)-2,2,4,4-tetramethylcyclobutyl)-4-(4-((((1r,3r)-3-((2-(2,6-dioxopiperidin-3-yl)-1,3-dioxoisoindolin-5-yl)oxy)cyclobutyl)(2-hydroxyethyl)amino)methyl)piperidin-1-yl)benzamide]",< 1
4,"COc1cc(O[C@H]2C[C@H](N(CC3CCN(c4cnc(C(=O)N[C@H]5C(C)(C)[C@H](Oc6ccc(C#N)c(Cl)c6)C5(C)C)cn4)CC3)C(C)C)C2)cc2c1CN(C1CCC(=O)NC1=O)C2=O (mixture of isomers) [compound 226, rac-N-((1r,3r)-3-(3-chloro-4-cyanophenoxy)-2,2,4,4-tetramethylcyclobutyl)-5-(4-((((1r,3r)-3-((2-(2,6-dioxopiperidin-3-yl)-7-methoxy-3-oxoisoindolin-5-yl)oxy)cyclobutyl) (isopropyl)amino)methyl)piperidin-1-yl)pyrazine-2-carboxamide]",< 1
5,"Cc1cc(O[C@H]2C(C)(C)[C@H](NC(=O)c3ccc(N4CCC5(CC4)CN([C@H]4C[C@H](Oc6ccc7c(c6)C(=O)N(C6CCC(=O)NC6=O)C7=O)C4)CCO5)cc3)C2(C)C)cc(C)c1C#N (mixture of isomers) [compound 228, rac-N-((1r,3r)-3-(4-cyano-3,5-dimethylphenoxy)-2,2,4,4-tetramethylcyclobutyl)-4-(4-((1r,3r)-3-((2-(2,6-dioxopiperidin-3-yl)-1,3-dioxoisoindolin-5-yl)oxy)cyclobutyl)-1-oxa-4,9-diazaspiro[5.5]undecan-9-yl)benzamide]",< 1
6,"Cc1cc(O[C@H]2C(C)(C)[C@H](NC(=O)c3cnc(N4CCC(CN(CCO)[C@H]5C[C@H](Oc6ccc7c(c6)C(=O)N(C6CCC(=O)NC6=O)C7=O)C5)CC4)cn3)C2(C)C)cc(C)c1C#N (mixture of isomers) [compound 229, rac-N-((1r,3r)-3-(4-cyano-3,5-dimethylphenoxy)-2,2,4,4-tetramethylcyclobutyl)-5-(4-((((1r,3r)-3-((2-(2,6-dioxopiperidin-3-yl)-1,3-dioxoisoindolin-5-yl)oxy)cyclobutyl)(2-hydroxyethyl)amino)methyl)piperidin-1-yl)pyrazine-2-carboxamide]",< 1
